Measured values published in ChEMBL document CHEMBL5113489, “Design, synthesis, and biological evaluation of membrane-active honokiol derivatives as potent antibacterial agents” (Eur J Med Chem, 2022).
In brackets after ≈: the same amount, converted by molar mass.

What was measured:
[1] = tested on: Staphylococcus aureus; assay: Antibacterial activity against Staphylococcus aureus ATCC 25923; type: functional
[2] = tested on: Staphylococcus aureus; assay: Antibacterial activity against Staphylococcus aureus ATCC 31007; type: functional
[3] = tested on: Staphylococcus aureus; assay: Antibacterial activity against Staphylococcus aureus ATCC 43300; type: functional
[4] = tested on: Bacillus subtilis; assay: Antibacterial activity against Bacillus subtilis ATCC 9372; type: functional
[5] = tested on: Escherichia coli; assay: Antibacterial activity against Escherichia coli ATCC 25922; type: functional
[6] = tested on: Pseudomonas aeruginosa; assay: Antibacterial activity against Pseudomonas aeruginosa ATCC 27853; type: functional
[7] = Hemolytic activity in sheep RBC; type: toxicity, cell-based, Ovis aries, Erythrocyte; conditions: sheep red blood cells (erythrocytes)
[8] = Selectivity index, ratio of HC50 for hemolytic activity in sheep RBC to MIC for antibacterial activity against Staphylococcus aureus ATCC 43300; type: toxicity; conditions: sheep red blood cells (erythrocytes)

| Compound | MIC [1] | MIC [2] | MIC [3] | MIC [4] | MIC [5] | MIC [6] | HC50 [7] | selectivity ratio [8] |
| --- | --- | --- | --- | --- | --- | --- | --- | --- |
| C=CCc1ccc(OCC(=O)NC(CCCCN)C(=O)NCc2ccc(C(C)(C)C)cc2)c(-c2ccc(OCC(=O)NC(CCCCN)C(=O)NCc3ccc(C(C)(C)C)cc3)c(CC=C)c2)c1.O=C(O)C(F)(F)F.O=C(O)C(F)(F)F (stereo not given) | 8 µg/mL | 16 µg/mL | 4 µg/mL | 4 µg/mL | 128 µg/mL | > 128 µg/mL |  |  |
| C=CCc1ccc(OCC(=O)NC(CCCCN)C(=O)NCCCCCC)c(-c2ccc(OCC(=O)NC(CCCCN)C(=O)NCCCCCC)c(CC=C)c2)c1.O=C(O)C(F)(F)F.O=C(O)C(F)(F)F (stereo not given) | 8 µg/mL | 8 µg/mL | 8 µg/mL | 8 µg/mL | 16 µg/mL | 16 µg/mL | 502 µg/mL | 62.7 |
| C=CCc1ccc(OCC(=O)NCCC[N+](C)(C)C)c(-c2ccc(OCC(=O)NCCC[N+](C)(C)C)c(CC=C)c2)c1.[I-].[I-] | 64 µg/mL | 128 µg/mL | > 128 µg/mL | > 128 µg/mL | 16 µg/mL | > 128 µg/mL |  |  |
| C=CCc1ccc(OCC(=O)NCCC[N+](C)(C)CCCCCCCCCCCC)c(-c2ccc(OCC(=O)NCCC[N+](C)(C)CCCCCCCCCCCC)c(CC=C)c2)c1.[Br-].[Br-] | 8 µg/mL | 8 µg/mL | 4 µg/mL | 32 µg/mL | 32 µg/mL | 128 µg/mL |  |  |
| C=CCc1ccc(OCCCN)c(-c2ccc(OCCCN)c(CC=C)c2)c1.Cl.Cl | 4 µg/mL | 8 µg/mL | 4 µg/mL | 32 µg/mL | > 128 µg/mL | 64 µg/mL | 438 µg/mL | 110 |
| C=CCc1ccc(OCC(=O)NCCCN)c(-c2ccc(OCC(=O)NCCCN)c(CC=C)c2)c1.O=C(O)C(F)(F)F.O=C(O)C(F)(F)F | 32 µg/mL | 64 µg/mL | 64 µg/mL | > 128 µg/mL | 128 µg/mL | 64 µg/mL |  |  |
| C=CCc1ccc(OCC(=O)NCCCN(C)C)c(-c2ccc(OCC(=O)NCCCN(C)C)c(CC=C)c2)c1 | 128 µg/mL (≈ 232 µM) | 128 µg/mL (≈ 232 µM) | > 128 µg/mL | > 128 µg/mL | > 128 µg/mL | > 128 µg/mL |  |  |
| C=CCc1ccc(OCC(=O)NC(CCCCN)C(=O)NCC23CC4CC(CC(C4)C2)C3)c(-c2ccc(OCC(=O)NC(CCCCN)C(=O)NCC34CC5CC(CC(C5)C3)C4)c(CC=C)c2)c1.O=C(O)C(F)(F)F.O=C(O)C(F)(F)F (stereo not given) | 8 µg/mL | 4 µg/mL | 4 µg/mL | 4 µg/mL | > 128 µg/mL | > 128 µg/mL | 1280 µg/mL | > 320 |
| C=CCc1ccc(OCCC[N+](C)(C)CCCCCCCC)c(-c2ccc(OCCC[N+](C)(C)CCCCCCCC)c(CC=C)c2)c1.[Br-].[Br-] | 2 µg/mL | 2 µg/mL | 2 µg/mL | 1 µg/mL | 8 µg/mL | 16 µg/mL | 36 µg/mL | 18 |
| C=CCc1ccc(OCC(=O)NC(CCCCN)C(=O)NCCCCCCCCCCCC)c(-c2ccc(OCC(=O)NC(CCCCN)C(=O)NCCCCCCCCCCCC)c(CC=C)c2)c1.O=C(O)C(F)(F)F.O=C(O)C(F)(F)F (stereo not given) | 128 µg/mL | 64 µg/mL | 64 µg/mL | > 128 µg/mL | > 128 µg/mL | > 128 µg/mL |  |  |
| C=CCc1ccc(OCCC[N+](C)(C)CCCCCCCCCCCC)c(-c2ccc(OCCC[N+](C)(C)CCCCCCCCCCCC)c(CC=C)c2)c1.[Br-].[Br-] | 128 µg/mL | 128 µg/mL | > 128 µg/mL | > 128 µg/mL | > 128 µg/mL | > 128 µg/mL |  |  |
| C=CCc1ccc(OCC(=O)NCCC[N+](C)(C)CCCCCC)c(-c2ccc(OCC(=O)NCCC[N+](C)(C)CCCCCC)c(CC=C)c2)c1.[Br-].[Br-] | 8 µg/mL | 16 µg/mL | 16 µg/mL | 16 µg/mL | 16 µg/mL | 128 µg/mL | 183 µg/mL | 11.4 |
| C=CCc1ccc(OCC(=O)NC(CCCCN)C(=O)NCCCC)c(-c2ccc(OCC(=O)NC(CCCCN)C(=O)NCCCC)c(CC=C)c2)c1.O=C(O)C(F)(F)F.O=C(O)C(F)(F)F (stereo not given) | 16 µg/mL | 32 µg/mL | 16 µg/mL | 8 µg/mL | 32 µg/mL | 32 µg/mL |  |  |
| C=CCc1ccc(OCC(=O)NC(CCCCN)C(=O)NCCCCCCCC)c(-c2ccc(OCC(=O)NC(CCCCN)C(=O)NCCCCCCCC)c(CC=C)c2)c1.O=C(O)C(F)(F)F.O=C(O)C(F)(F)F (stereo not given) | 16 µg/mL | 16 µg/mL | 8 µg/mL | 8 µg/mL | 64 µg/mL | 128 µg/mL |  |  |
| C=CCc1ccc(OCC(=O)NCCC[N+](C)(C)CCCC)c(-c2ccc(OCC(=O)NCCC[N+](C)(C)CCCC)c(CC=C)c2)c1.[Br-].[Br-] | 64 µg/mL | 128 µg/mL | 128 µg/mL | > 128 µg/mL | 128 µg/mL | > 128 µg/mL |  |  |
| C=CCc1ccc(OCCC[N+](C)(C)CCCC)c(-c2ccc(OCCC[N+](C)(C)CCCC)c(CC=C)c2)c1.[Br-].[Br-] | 4 µg/mL | 8 µg/mL | 4 µg/mL | 4 µg/mL | 16 µg/mL | 128 µg/mL | 1180 µg/mL | 295 |
| C=CCc1ccc(OCC(=O)NCCN)c(-c2ccc(OCC(=O)NCCN)c(CC=C)c2)c1.O=C(O)C(F)(F)F.O=C(O)C(F)(F)F | 32 µg/mL | 32 µg/mL | 32 µg/mL | 128 µg/mL | 64 µg/mL | 128 µg/mL |  |  |
| C=CCc1ccc(OCCC[N+](C)(C)CCCCCCCCCCCCCC)c(-c2ccc(OCCC[N+](C)(C)CCCCCCCCCCCCCC)c(CC=C)c2)c1.[Br-].[Br-] | 16 µg/mL | 128 µg/mL | > 128 µg/mL | > 128 µg/mL | > 128 µg/mL | > 128 µg/mL |  |  |
| C=CCc1ccc(OCCN)c(-c2ccc(OCCN)c(CC=C)c2)c1.Cl.Cl | 8 µg/mL | 16 µg/mL | 8 µg/mL | 32 µg/mL | 16 µg/mL | 64 µg/mL | 694 µg/mL | 86.7 |
| C=CCc1ccc(O)c(-c2ccc(O)c(CC=C)c2)c1 [HONOKIOL] | 64 µg/mL (≈ 240 µM) | 64 µg/mL (≈ 240 µM) | 128 µg/mL (≈ 481 µM) | 32 µg/mL (≈ 120 µM) | > 128 µg/mL | > 128 µg/mL |  |  |
| C=CCc1ccc(OCC(=O)NCCCCN)c(-c2ccc(OCC(=O)NCCCCN)c(CC=C)c2)c1.O=C(O)C(F)(F)F.O=C(O)C(F)(F)F | 32 µg/mL | 64 µg/mL | 32 µg/mL | 128 µg/mL | 128 µg/mL | 64 µg/mL |  |  |
| C=CCc1ccc(OCCC[N+](C)(C)CCCCCCCCCC)c(-c2ccc(OCCC[N+](C)(C)CCCCCCCCCC)c(CC=C)c2)c1.[Br-].[Br-] | 16 µg/mL | 32 µg/mL | 4 µg/mL | 2 µg/mL | > 128 µg/mL | > 128 µg/mL |  |  |
| CN[C@H](CC(C)C)C(=O)N[C@H]1C(=O)N[C@@H](CC(N)=O)C(=O)N[C@H]2C(=O)N[C@H]3C(=O)N[C@H](C(=O)N[C@H](C(=O)O)c4cc(O)cc(O)c4-c4cc3ccc4O)[C@H](O)c3ccc(c(Cl)c3)Oc3cc2cc(c3O[C@@H]2O[C@H](CO)[C@@H](O)[C@H](O)[C@H]2O[C@H]2C[C@](C)(N)[C@H](O)[C@H](C)O2)Oc2ccc(cc2Cl)[C@H]1O [VANCOMYCIN] |  |  |  | 0.5 µg/mL (≈ 0.345 µM) | > 128 µg/mL | > 128 µg/mL |  |  |
| C=CCc1ccc(OCC(=O)NC(CCCCN)C(=O)NCc2ccc(-c3ccccc3)cc2)c(-c2ccc(OCC(=O)NC(CCCCN)C(=O)NCc3ccc(-c4ccccc4)cc3)c(CC=C)c2)c1.O=C(O)C(F)(F)F.O=C(O)C(F)(F)F (stereo not given) | 32 µg/mL | 32 µg/mL | 16 µg/mL | 8 µg/mL | > 128 µg/mL | > 128 µg/mL |  |  |
